# In paper PMC4818757, “Small molecule inhibitors of the Dishevelled‐CXXC5 interaction are new drug candidates for bone anabolic osteoporosis therapy” (EMBO Molecular Medicine, 2016):
# “Also recorded” adds a separate entry of the source. Like-named read-outs stand apart in the source and are kept apart here.
# Legend:
# primary calvaria cells = assay: β-catenin / Runx2 immunofluorescence in primary calvaria cells; format: cell-based, mouse
# primary osteoblast cells = assay: ALP staining of primary calvaria (osteoblast) cells; format: cell-based, mouse; conditions: 4 days
# Method: Figure 3 Effect of KY‐02061 on Wnt/β‐catenin pathway, osteoblast differentiation, and ex vivo‐cultured calvaria growth • A MC3T3E1 cells were transfected with pTOPFLASH together with pCMV‐β‐gal. After 24 h, the cells were treated with DMSO, KY‐02061 in DMSO, or 5 μM PolyR‐DBM for 2 days. The luciferase activities of whole‐cell lysates were measured and normalized with β‐galactosidase activities. (n = 3) • B Primary calvaria cells were isolated from the calvariae of 4‐day‐old mice (Manton et al, 2007) and treated with DMSO or KY‐02061 in DMSO for 4 days. ALP activity levels were visualized by ALP staining. • C Primary calvaria cells were treated with DMSO or 5 μM KY‐02061 in DMSO for 14 days. […] The calvaria thicknesses were measured from the stained sections using Image Pro software (E). […] (error bars), and significance was assessed using unpaired Student's t‐test.
# (§1) MC3T3E1 cells and primary calvaria cells were maintained in supplemented α‐MEM. […] For quantitative real‐time PCR (qRT–PCR), total mRNAs were extracted using TRIzol (Invitrogen), complementary DNAs were prepared using Maxime PCR PreMix (iNtRON Biotechnology, Sungnam, Korea), and the qRT–PCRs were performed using SYBR Premix Ex Taq (TaKaRa, Shiga, Japan) in the StepOnePlus Real‐Time PCR machine (Thermo Fisher Scientific, Waltham, MA). […]
# MC3T3E1 cells = assay: qRT-PCR of osteoblast differentiation markers in MC3T3E1 cells; format: cell-based, murine; conditions: dose‐dependent
# Method: Figure 5 Effects of KY‐02327 on Wnt/β‐catenin pathway and osteoblast differentiation in osteoblasts • A MC3T3E1 cells were transfected with pTOPFLASH together with pCMV‐β‐gal. After 24 h, the cells were treated with indicated dose of KY‐02327 for 2 days. The luciferase activities of whole‐cell lysates were measured and normalized with β‐galactosidase activities. (n = 3) • B, C MC3T3E1 cells were treated with indicated concentrations of KY‐02327 for 2 days. β‐Catenin and α‐tubulin were detected by immunoblot (B) or immunofluorescence (C) analyses. Nuclei were counterstained with DAPI (C, blue). Scale bars, 100 μm. • D MC3T3E1 cells were treated with indicated concentrations of KY‐02327 for 14 days. The mRNA level of collagen 1a (Col1a) was measured by quantitative real‐time PCR (qRT–PCR). […] The mRNA level of osteocalcin (OCN) was measured by qRT–PCR. […] (error bars), and significance was assessed using unpaired Student's t‐test.
# as §1
# TA-100 = test system: TA-100
# Source text: (§2) Appendix Table S3. Bacterial reverse mutation assay with KY-02327
# (§3) a Number of revertant colonies of treated plate/Number of revertant colonies of
# (§4) vehicle control plate (Maron & Ames, 1983).
# (§5) b Negative control. Vehicle: DMSO
# TA-98 = test system: TA-98
# Source text: as §2, §3, §4, §5
# [1] = molecular target: Human Ether-à-go-go Related Gene (hERG) potassium channel (Homo sapiens, UniProt Q12809); assay: hERG binding assay (fluorescence polarization)
# hERG potassium channel = hERG potassium channel (Homo sapiens, UniProt Q12809); assay: hERG binding assay (fluorescence polarization); conditions: human; 10 µM compound; fluorescence polarization
# [2] = test system: normal or cancer cells derived from various tissues; assay: MTT assay on various normal or cancer cells; format: cell-based
# Method: (amino acids 1-34) was subcutaneously injected into the Sham-operated
# (Sham) or ovariectomized (OVX) mice on 5 sequential days per week for 4 weeks [n =4]. During treatment, the weights of each mouse were measured and recorded every week (A). After 4 weeks treatment, mice were scarified and their organs were subjected to histological analyses.
# Hematoxylin and Eosin staining of liver (B), lung (C), and spleen (D).
# E Various cells were treated with DMSO or 0.1, 1, or 10 µ M KY-02327.
# After 48 hours, cells were subjected to an MTT assay (OD590 reading) to measure cell viability. NSC: neural stem cell, OB: osteoblast, MSC: mesenchymal stem cell. The data are the mean ± s.d. (error bars). [n =3]
# Sequence of Human Ether-à-go-go Related Gene (hERG) potassium channel (Q12809 whole entry): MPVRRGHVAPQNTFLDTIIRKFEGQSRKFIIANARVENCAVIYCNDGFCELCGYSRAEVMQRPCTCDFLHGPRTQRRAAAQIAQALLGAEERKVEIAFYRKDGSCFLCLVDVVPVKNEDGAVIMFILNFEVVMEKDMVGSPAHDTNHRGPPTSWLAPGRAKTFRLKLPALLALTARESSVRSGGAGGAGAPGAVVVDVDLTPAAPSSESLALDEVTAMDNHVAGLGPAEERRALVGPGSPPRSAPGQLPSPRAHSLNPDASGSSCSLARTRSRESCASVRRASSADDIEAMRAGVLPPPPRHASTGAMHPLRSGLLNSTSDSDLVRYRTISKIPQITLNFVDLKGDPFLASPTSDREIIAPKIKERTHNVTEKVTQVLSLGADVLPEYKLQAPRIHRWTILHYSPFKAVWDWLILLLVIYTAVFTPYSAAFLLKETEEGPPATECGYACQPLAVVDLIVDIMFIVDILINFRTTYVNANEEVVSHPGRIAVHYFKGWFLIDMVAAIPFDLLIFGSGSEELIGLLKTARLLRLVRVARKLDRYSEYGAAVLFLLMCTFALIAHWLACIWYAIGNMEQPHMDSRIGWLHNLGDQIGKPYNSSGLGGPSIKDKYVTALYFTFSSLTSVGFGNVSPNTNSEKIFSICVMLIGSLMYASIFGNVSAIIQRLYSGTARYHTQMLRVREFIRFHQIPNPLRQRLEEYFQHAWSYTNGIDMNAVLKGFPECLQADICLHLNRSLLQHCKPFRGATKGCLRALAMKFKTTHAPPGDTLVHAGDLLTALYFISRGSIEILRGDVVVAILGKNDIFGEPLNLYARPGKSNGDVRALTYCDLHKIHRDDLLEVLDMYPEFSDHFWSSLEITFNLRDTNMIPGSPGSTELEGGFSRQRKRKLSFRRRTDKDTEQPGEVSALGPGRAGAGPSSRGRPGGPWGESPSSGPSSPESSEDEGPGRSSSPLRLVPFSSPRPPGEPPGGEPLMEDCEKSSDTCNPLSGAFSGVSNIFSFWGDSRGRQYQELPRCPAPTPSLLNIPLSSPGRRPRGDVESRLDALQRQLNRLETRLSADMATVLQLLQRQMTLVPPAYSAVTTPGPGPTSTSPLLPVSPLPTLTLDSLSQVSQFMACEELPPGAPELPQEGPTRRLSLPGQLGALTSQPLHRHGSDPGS
# Sequence of hERG potassium channel (Q12809 whole entry): as above
SMILES,"nuclear accumulation of β‐catenin (primary calvaria cells; 2 μM, 2 days)","levels of Runx2 and β‐catenin (primary calvaria cells; 5 μM, 14 days)",Alkaline phosphatase (ALP) activity (primary osteoblast cells; 2 μM),"ALP activity, dose dependence (primary osteoblast cells)",mRNA level of collagen 1a (Col1a) (MC3T3E1 cells; 14 days),mRNA level of osteocalcin (OCN) (MC3T3E1 cells; 21 days),"Factor (revertant colonies treated plate / vehicle control plate) (TA-100; TA-100, With S-9 mix)","Revertant colonies/plate (Mean) (TA-100; TA-100, With S-9 mix, dose (g/plate): KY-02327 1000, B.P 2) [colonies/plate]","Factor (revertant colonies treated plate / vehicle control plate) (TA-100; TA-100, Without S-9 mix)","Revertant colonies/plate (Mean) (TA-100; TA-100, Without S-9 mix, dose (g/plate): KY-02327 1000, S.A 1) [colonies/plate]","Factor (revertant colonies treated plate / vehicle control plate) (TA-98; TA-98, Without S-9 mix)","Revertant colonies/plate (Mean) (TA-98; TA-98, Without S-9 mix, dose (g/plate): KY-02327 1000, 2-NF 1) [colonies/plate]",genetic toxicity in bacterial reverse mutation assay (TA-98; TA-98 and TA-100),cardiotoxicity (hERG potassium channel inhibition test) [1],inhibition at 10 µM (hERG potassium channel) [%],"toxic effect on cell viability (MTT) ([2]; 0.1, 1, or 10 M, 48 hours)",proliferation of MC3T3E1 cells (MTT) ([2]; MC3T3E1),proliferation of murine primary osteoblasts (OB) ([2]; OB)
CCOC(=O)Cn1c(C(=O)OCC)cc2cc(OS(=O)(=O)c3ccc(C)cc3)ccc21 [KY‐02061],strong accumulation,increased levels,increased; also recorded: strongest increase,increased in a dose‐dependent manner,–,–,–,–,–,–,–,–,–,–,–,–,–,–
CCOC(=O)c1cc2cc(O)ccc2n1CC(=O)NCCN1CCCCC1 [KY‐02327],–,–,–,–,increased,increased,1.0,117 ± 8,1.0,123 ± 6,1.0,19,no genetic toxicity,did not show any significant cardiotoxicity,10.9 ± 2.07,no significant toxic effect,did not significantly affect,unaffected
